Measured values from ChEMBL document CHEMBL4414638, “Structure-Activity Relationship of Peptide-Conjugated Chloramphenicol for Inhibiting Escherichia coli” (J Med Chem, 2019).
In brackets after ≈: the same amount, converted by molar mass. *1 amine or outer side, *2 acyl side, *3 side chain or, on linkers, in order; H or OH if unused. Where a SMILES comes first, the peptide text is derived from it. [ ]: non-standard residue; d: D form. The star is where a group is joined. X1 = O=C(CCC(=O)[*:2])OC[C@@H](N[*:1])[C@H](O)c1ccc([N+](=O)[O-])cc1; Dichloroacetyl = O=C(C(Cl)Cl)*

How the values were obtained:
Escherichia coli = experiment: Antibacterial activity against Escherichia coli K-12 assessed as reduction in bacterial growth incubated for 16 hrs; format: functional; details: K-12, 16 h
HEK293 = experiment: Cytotoxicity in human HEK293 cells assessed as reduction in cell viability at 20 uM […] relative to chloramphenicol; format: cell-based; details: hek293, 20 µM
[1] = Cytotoxicity in human HS5 cells assessed as reduction in cell viability at 20 uM to 2 mM incubated up to […]rs relative to chloramphenicol; format: cell-based
[2] = Drug metabolism in human serum assessed as formation of chloramphenicol at 200 uM at 37 degC after 24 hrs by LC-MS analysis relative to control

Row | Structure (SMILES) | MIC (Escherichia coli) | Activity (HEK293) | Activity [1] | Drug metabolism [2]
1 | COC(=O)CCC(=O)OC[C@@H](NC(=O)C(Cl)Cl)[C@H](O)c1ccc([N+](=O)[O-])cc1 | > 200 µM |  |  | 
2 | C[C@@H](NC(=O)CNC(=O)CCC(=O)OC[C@@H](NC(=O)C(Cl)Cl)[C@H](O)c1ccc([N+](=O)[O-])cc1)C(=O)O | 20 µM (≈ 11 µg/mL) | Toxic | Non-Toxic | 
3 | CNC(=O)CNC(=O)CNC(=O)CCC(=O)OC[C@@H](NC(=O)C(Cl)Cl)[C@H](O)c1ccc([N+](=O)[O-])cc1 | 20 µM (≈ 11 µg/mL) | Toxic | Non-Toxic | 
4 | O=C(CCC(=O)OC[C@@H](NC(=O)C(Cl)Cl)[C@H](O)c1ccc([N+](=O)[O-])cc1)NCC(=O)NCC(=O)N[C@H](Cc1ccccc1)C(=O)N[C@H](Cc1ccccc1)C(=O)O | 20 µM (≈ 16.6 µg/mL) | Toxic | Non-Toxic | Metabolite_Detected
5 | O=C(CCC(=O)OC[C@@H](NC(=O)C(Cl)Cl)[C@H](O)c1ccc([N+](=O)[O-])cc1)NCC(=O)NCC(=O)N[C@@H](Cc1ccccc1)C(=O)O | 20 µM (≈ 13.7 µg/mL) | Toxic | Non-Toxic | 
6 | O=C(O)CNC(=O)CNC(=O)CNC(=O)CNC(=O)CCC(=O)OC[C@@H](NC(=O)C(Cl)Cl)[C@H](O)c1ccc([N+](=O)[O-])cc1 (Dichloroacetyl-[X1]GGGG-OH) | 20 µM (≈ 13 µg/mL) | Toxic | Non-Toxic | 
7 | C[C@@H](NC(=O)CCC(=O)OC[C@@H](NC(=O)C(Cl)Cl)[C@H](O)c1ccc([N+](=O)[O-])cc1)C(=O)O | > 200 µM |  |  | 
8 | C[C@@H](NC(=O)[C@@H](C)NC(=O)[C@@H](C)NC(=O)CCC(=O)OC[C@@H](NC(=O)C(Cl)Cl)[C@H](O)c1ccc([N+](=O)[O-])cc1)C(=O)O | 80 µM (≈ 50.9 µg/mL) |  |  | 
9 | O=C(CCC(=O)OC[C@@H](NC(=O)C(Cl)Cl)[C@H](O)c1ccc([N+](=O)[O-])cc1)NCCS(=O)(=O)O | 40 µM (≈ 21.2 µg/mL) |  |  | 
10 | O=C(CCC(=O)OC[C@@H](NC(=O)C(Cl)Cl)[C@H](O)c1ccc([N+](=O)[O-])cc1)N[C@H](Cc1ccccc1)C(=O)N[C@H](Cc1ccccc1)C(=O)O | 100 µM (≈ 71.8 µg/mL) |  |  | 
11 | O=C(O)CNC(=O)[C@H](Cc1ccccc1)NC(=O)CNC(=O)CCC(=O)OC[C@@H](NC(=O)C(Cl)Cl)[C@H](O)c1ccc([N+](=O)[O-])cc1 | 20 µM (≈ 13.7 µg/mL) | Toxic | Non-Toxic | 
12 | O=C(O)CNC(=O)CNC(=O)[C@H](Cc1ccccc1)NC(=O)CCC(=O)OC[C@@H](NC(=O)C(Cl)Cl)[C@H](O)c1ccc([N+](=O)[O-])cc1 | 80 µM (≈ 54.8 µg/mL) |  |  | 
13 | O=C(CCC(=O)OC[C@@H](NC(=O)C(Cl)Cl)[C@H](O)c1ccc([N+](=O)[O-])cc1)NCC(=O)NCC(=O)N[C@@H](Cc1ccccc1)C(=O)N[C@@H](Cc1ccccc1)C(=O)O | 20 µM (≈ 16.6 µg/mL) | Toxic | Non-Toxic | 
14 | O=C(CCC(=O)OC[C@@H](NC(=O)C(Cl)Cl)[C@H](O)c1ccc([N+](=O)[O-])cc1)N[C@H](Cc1ccccc1)C(=O)N[C@H](Cc1ccccc1)C(=O)N[C@H](Cc1ccc2ccccc2c1)C(=O)O | > 200 µM |  |  | 
15 | O=C(O)CNC(=O)CNC(=O)CNC(=O)CNC(=O)CNC(=O)CCC(=O)OC[C@@H](NC(=O)C(Cl)Cl)[C@H](O)c1ccc([N+](=O)[O-])cc1 (Dichloroacetyl-[X1]GGGGG-OH) | 40 µM (≈ 28.3 µg/mL) |  |  | 
16 | O=C(N[C@H](CO)[C@H](O)c1ccc([N+](=O)[O-])cc1)C(Cl)Cl [CHLORAMPHENICOL] | 20 µM (≈ 6.46 µg/mL) | Toxic |  | 
17 | O=C(O)CCC(=O)OC[C@@H](NC(=O)C(Cl)Cl)[C@H](O)c1ccc([N+](=O)[O-])cc1 [CHLORAMPHENICOL SUCCINIC ACID] | > 200 µM | Toxic | Non-Toxic | 
18 | O=C(CCC(=O)OC[C@@H](NC(=O)C(Cl)Cl)[C@H](O)c1ccc([N+](=O)[O-])cc1)NCCOP(=O)(O)O | 100 µM (≈ 54.6 µg/mL) |  |  | 
19 | C[C@H](NC(=O)[C@H](C)NC(=O)[C@H](C)NC(=O)CCC(=O)OC[C@@H](NC(=O)C(Cl)Cl)[C@H](O)c1ccc([N+](=O)[O-])cc1)C(=O)O | 100 µM (≈ 63.6 µg/mL) |  |  | 
20 | NCCCC[C@@H](NC(=O)[C@@H](CCCCN)NC(=O)[C@@H](Cc1ccccc1)NC(=O)[C@@H](Cc1ccccc1)NC(=O)CCC(=O)OC[C@@H](NC(=O)C(Cl)Cl)[C@H](O)c1ccc([N+](=O)[O-])cc1)C(=O)O | 200 µM (≈ 195 µg/mL) |  |  | 
21 | O=C(O)CNC(=O)CNC(=O)[C@@H](Cc1ccc2ccccc2c1)NC(=O)[C@@H](Cc1ccccc1)NC(=O)[C@@H](Cc1ccccc1)NC(=O)CCC(=O)OC[C@@H](NC(=O)C(Cl)Cl)[C@H](O)c1ccc([N+](=O)[O-])cc1 | > 200 µM |  |  | 

The next lines start with results.

Row | MIC (Escherichia coli) | Structure (SMILES) | Activity (HEK293) | Activity [1] | Drug metabolism [2]
22 | 20 µM (≈ 11.9 µg/mL) | CC(C)C[C@@H](NC(=O)CNC(=O)CCC(=O)OC[C@@H](NC(=O)C(Cl)Cl)[C@H](O)c1ccc([N+](=O)[O-])cc1)C(=O)O | Toxic | Non-Toxic | 
23 | > 200 µM | O=C(O)CC[C@@H](NC(=O)[C@@H](CCC(=O)O)NC(=O)CCC(=O)OC[C@@H](NC(=O)C(Cl)Cl)[C@H](O)c1ccc([N+](=O)[O-])cc1)C(=O)O |  |  | 
24 | 200 µM (≈ 206 µg/mL) | N=C(N)NCCC[C@@H](NC(=O)[C@@H](CCCNC(=N)N)NC(=O)[C@@H](Cc1ccccc1)NC(=O)[C@@H](Cc1ccccc1)NC(=O)CCC(=O)OC[C@@H](NC(=O)C(Cl)Cl)[C@H](O)c1ccc([N+](=O)[O-])cc1)C(=O)O |  |  | 
25 | 80 µM (≈ 45.2 µg/mL) | C[C@@H](NC(=O)[C@@H](C)NC(=O)CCC(=O)OC[C@@H](NC(=O)C(Cl)Cl)[C@H](O)c1ccc([N+](=O)[O-])cc1)C(=O)O |  |  | 
26 | 100 µM (≈ 56.5 µg/mL) | C[C@H](NC(=O)[C@H](C)NC(=O)CCC(=O)OC[C@@H](NC(=O)C(Cl)Cl)[C@H](O)c1ccc([N+](=O)[O-])cc1)C(=O)O |  |  | 
27 | 200 µM (≈ 131 µg/mL) | O=C(O)C[C@H](NC(=O)[C@H](CC(=O)O)NC(=O)CCC(=O)OC[C@@H](NC(=O)C(Cl)Cl)[C@H](O)c1ccc([N+](=O)[O-])cc1)C(=O)O |  |  | 
28 | 20 µM (≈ 11.9 µg/mL) | O=C(O)C[C@H](NC(=O)CNC(=O)CCC(=O)OC[C@@H](NC(=O)C(Cl)Cl)[C@H](O)c1ccc([N+](=O)[O-])cc1)C(=O)O | Toxic | Non-Toxic | 
29 | > 200 µM | O=C(O)C[C@@H](NC(=O)[C@@H](CC(=O)O)NC(=O)CCC(=O)OC[C@@H](NC(=O)C(Cl)Cl)[C@H](O)c1ccc([N+](=O)[O-])cc1)C(=O)O |  |  | 
30 | 200 µM (≈ 147 µg/mL) | N=C(N)NCCC[C@@H](NC(=O)[C@@H](CCCNC(=N)N)NC(=O)CCC(=O)OC[C@@H](NC(=O)C(Cl)Cl)[C@H](O)c1ccc([N+](=O)[O-])cc1)C(=O)O |  |  | 
